A word on the IC50: it is the midpoint of a concentration-inhibition curve. By CC50 is commonly meant the concentration giving 50% cytotoxicity. As usually defined, the LD50 is the dose at which mortality reaches 50%. Lower therefore signals greater toxicity.

Data set [1] relates to Herpes simplex II virus (HSVII). Kind of data set: Plaque reduction assay, Herpes simplex II virus. Type of data set: cell-based. As to the method:
(§1) Antiviral activity against human Parainfluenza virus, Respiratory syncytial virus (RSV) and Herpes simplex II virus (HSVII) was determined by the plaque reduction assay, while that against Feline immunodeficiency virus (FIV) and Feline leukemia virus (FeLV) by the reverse transcriptase assay and ELISA, respectively.
(§2) Each virus was obtained from ATCC. As host cells, VERO cells were used for Parainfluenza virus, and HEP2 cells for other viruses.
(§3) To fibroblasts growing in a T150 flask were added virus-infected cells, and the cells were incubated until they reached 60-80% infection. Cells were trypsinized, recovered and used as the virus stock. As the cell culture medium was used E-MEM containing 2-5% FBS, 100 U/ml Penicillin, 2.5 μg/ml Aniphotericin and 10 μg/ml Gentamycin.
(§4) Compound related to Example 29 was appropriately diluted to the concentrations of 500, 100, 50, 10 and 5 μg/ml with the culture medium or methyl cellulose. As the reference drug for HSV II was used Acyclovir. […]
(§5) Cells were cultured at 36-38° C. under the 5-7% CO2 atmosphere, and examined for the appearance of plaques under microscope. […] Number of plaques counted in the sample well was compared with that in the virus control well, and the decrease in the number of plaques was used to express the antiviral activity.
On the technique in general: In a plaque reduction assay, fewer plaques than in the control indicate reduced infectivity or spread.

Data set [2] deals with AIDS virus (HIV-1, IIIb). It is filed as cell-based. To be noted: HIV-1 IIIb in H9 cells, p24 in culture supernatant by ELISA on the 6th day. On the procedure: (§6) Samples of various concentrations (25 μl) are distributed into a 24-well microplate, immediately added with human T cells (H9 cell line, 1.2×10^5/ml) (1 ml), covered, and incubated at 37° C. for 1 h. Then, AIDS virus (HIV-1, IIIb, 100 TCID 50) (25 μl) is added to each well and thoroughly mixed, covered again, and incubated under the CO2 atmosphere at 37° C. for 3 days. On the fourth day, aliquots (200 μl) of the culture medium from each well are transferred into a fresh microplate. The growth medium (500 μl) is added to each well, and further incubated for 2 days.
(§7) On the 6th day, aliquots (90 μl) of the culture supernatant are withdrawn, and assayed the amount of p24, a constituent of HIV-1, by ELISA method using the anti-p24 antibody to assess the growth of said virus. Also, using the remaining cell culture suspension (100 μl), viable cells are counted by the MTT method. Experimental values are expressed as the ratios (%) to the negative control value (measured using the solvent to dissolve test compounds as the sample) to represent the anti-HIV activity and cytotoxicity. Then, for the unified representation of the anti-HIV activity and cytotoxicity, the concentrations of test compounds at their 50% values are obtained from the activity-concentration curves and the cytotoxicity-concentration, and represented as IC50 and CC50, respectively.
Background: ELISA stands for enzyme-linked immunosorbent assay.

In data set [3] the test system is human T cells (H9 cell line). Description: Cytotoxicity, viable cells counted by the MTT method. Type of data set: cell-based. On the procedure:
as §6, §7

The subject of data set [4] is human plasma. Kind of data set: Anti-coagulation activity in human plasma. The conditions noted are these: calcium chloride, 37° C. for 30 min, judged with the naked eye.
Data set [5] has as its system mice. Description: Toxicity study, intravenous administration to mice. Type of data set: in vivo. To be noted: intravenously administered. On the procedure:
Compounds were intravenously administered to mice, and LD50s (mg/kg) were determined.

The subject of data set [6] is Respiratory syncytial virus (RSV). Kind of data set: Plaque reduction assay, Respiratory syncytial virus. Type of data set: cell-based. The conditions noted are these: HEP2 cells. As to the method:
as §1, §2, §3, §4, §5

Data set [7] deals with human Parainfluenza virus. Description: Plaque reduction assay, Parainfluenza virus. Type of data set: cell-based. The conditions noted are these: VERO cells. On the procedure:
as §1, §2, §3, §4, §5

Data set [8] has as its system Feline immunodeficiency virus (FIV). Description: Reverse transcriptase assay, Feline immunodeficiency virus. It is filed as cell-based. To be noted: CRFK cells. As to the method: as §1
(§8) Each virus was obtained from ATCC. FIV was cultured with CRFK cells in Eagle's balanced salt medium containing 10% FBS, and the supernatant was used as the virus stock. As FeLV was used ATCC VR-717.
(§9) Compound related to Example 29 was diluted with the medium to similar concentrations described above.
(§10) For each single strain of virus, the assay was performed in the following combinations of conditions.
(§11) After CRFL cells were cultured in monolayer in 96-well microplates, the supernatant was discarded. […]
(§12) Using supernatants as the sample from the cell control well, the virus control well and the test well, the reverse transcriptase of FIV or FeLV antigen contained therein were quantitated using assay kits from Amersham LIFESCIENCE and Synbiotics, respectively. Anti-viral activity was expressed as that ratio (%) of the value of the test well to that of the virus control well after both values were subtracted with the value of the cell control well, respectively.

Data set [9] relates to Feline leukemia virus (FeLV). Description: FeLV antigen ELISA, Feline leukemia virus. It is filed as cell-based. As to the method:
as §1, §8, §9, §10, §11, §12

`Nc1nc2c(ncn2COCCO)c(=O)[nH]1` [Acyclovir, reference compound] yielded an IC50 in data set [1] (HEp-2, HEP2 cells) of 21.6 µM.
`CCCCCCCCCCCCCCCCCCCCCCOC[C@H](CO[C@]1(C(=O)[O-])C[C@H](OS(=O)(=O)[O-])[C@@H](NC(C)=O)[C@H]([C@H](OS(=O)(=O)[O-])[C@@H](COS(=O)(=O)[O-])OS(=O)(=O)[O-])O1)OCCCCCCCCCCCCCCCCCCCCCC.[Na+].[Na+].[Na+].[Na+].[Na+]` [Example 12, 3-O-[Sodium{5-acetamido-3,5-dideoxy-4,7,8,9-tetra-O-(sodiumoxysulfonyl)-D-glycero-α-D-galacto-2-nonulopyranosyl}onate]-1,2-di-O-docosyl-Sn-glycerol] returned a 50% inhibitory concentration (IC50) in [2] of 0.8 µM. Also, in [3], the 50% cytotoxic concentration (CC50) is greater than 200 µM. For the same compound, the “Minimum concentration exhibiting anticoagulant action” value in data set [4] is 900 µM. The “LD50” value in [5] is 2000 mg/kg.
The corresponding values for `CCCCCCCCCCCCCCCCCCCCCCOCC(COC1(C(=O)[O-])CC(OS(=O)(=O)[O-])C(NC(C)=O)C(C(OS(=O)(=O)[O-])C(COS(=O)(=O)[O-])OS(=O)(=O)[O-])O1)OCCCCCCCCCCCCCCCCCCCCCC.[Na+].[Na+].[Na+].[Na+].[Na+]` [Example 13, 3-O-[Sodium{5-acetamido-3,5-dideoxy-4,7,8,9-tetra-O-(sodiumoxysulfonyl)-D-glycero-β-D-galacto-2-nonulopyranosyl}onate]-1,2-di-O-docosyl-Sn-glycerol] are 1.6 µM, greater than 200 µM, 1200 µM and 2000 mg/kg.
For the compound `CCCCCCCCCCCCCCCCCCCCCCOCC(C)(COCCCCCCCCCCCCCCCCCCCCCC)COC1(C(=O)[O-])CC(OS(=O)(=O)[O-])C(NC(C)=O)C(C(OS(=O)(=O)[O-])C(COS(=O)(=O)[O-])OS(=O)(=O)[O-])O1.[Na+].[Na+].[Na+].[Na+].[Na+]` [Example 29, Sodium[2,2-bis(docosyloxymethyl)propyl 5-acetamido-3,5-dideoxy-4,7,8,9-tetra-O-(sodiumoxysulfonyl)-D-glycero-α-D-galacto-2-nonulopyranosid]onate], the IC50 was 1.6 µM in data set [2]; 45.2 µM in data set [1] (HEP2 cells); 5.1 µM in [6]; 37.6 µM in [7]; 4.5 µM in data set [8]; 58.3 µM in data set [9]. Moreover, the CC50 in [3] was greater than 20 µM. In [4], the “Minimum concentration exhibiting anticoagulant action” value was 900 µM. In addition, the median lethal dose (LD50) in [5] is 2000 mg/kg.
As to `CCCCCCCCCCCCCCCCCCCCCCOc1cc(OCCCCCCCCCCCCCCCCCCCCCC)cc(O[C@@]2(C(=O)O)C[C@H](OS(=O)(=O)O)[C@@H](NC(C)=O)[C@H]([C@H](OS(=O)(=O)O)[C@@H](COS(=O)(=O)O)OS(=O)(=O)O)O2)c1` [Example 35, Sodium[3,5-Didocosyloxyphenyl-5-acetamido-3,5-dideoxy-4,7,8,9-tetra-O-(sodiumoxysulfonyl)-D-glycero-β-D-galacto-2-nonulopyranosid)onate], in data set [2], the IC50 is 90 µM. For the same compound, the CC50 in data set [3] is greater than 20 µM.
The corresponding values for `CCCCCCCCCCCCCCCCCCCCCC(=O)OCC(COC1(C(=O)O)CC(OS(=O)(=O)O)C(NC(C)=O)C(C(OS(=O)(=O)O)C(COS(=O)(=O)O)OS(=O)(=O)O)O1)OC(=O)CCCCCCCCCCCCCCCCCCCCC` [Example 38, 3-O-[Sodium{5-acetamido-3,5-dideoxy-4,7,8,9-tretra-O-(sodiumoxysulfonyl)-D-glycero-α-D-galacto-2-nonulopyranosyl}onate]-1,2-di-O-docosanoyl-Sn-glycerol] are 2.5 µM and greater than 200 µM.
The like results for `CCCCCCCCCCCCCCCCCCCCCCOCC(COC1(C(=O)O)CC(OS(=O)(=O)O)C(OS(=O)(=O)O)C(C(OS(=O)(=O)O)C(COS(=O)(=O)O)OS(=O)(=O)O)O1)OCCCCCCCCCCCCCCCCCCCCCC` [Example 41, 3-O-[Sodium{3-deoxy-4,5,7,8,9-penta-O-(sodiumoxysulfonyl)-D-glycero-α-D-galacto-2-nonulopyranosyl}onate]-1,2-di-O-docosyl-Sn-glycerol] were, in that order, 4 µM and greater than 200 µM.
In data set [2], `CCCCCCCCCCCCCCCCCCCCCCOCC(CC)(COCCCCCCCCCCCCCCCCCCCCCC)COC1(C(=O)O)CC(OS(=O)(=O)O)C(NC(C)=O)C(C(OS(=O)(=O)O)C(COS(=O)(=O)O)OS(=O)(=O)O)O1` [Example 50, Sodium[2,2-bis(docosyloxymethyl)butyl 5-acetamido-3,5-dideoxy-4,7,8,9-tetra-O-(sodiumoxysulfonyl)-D-glycero-α-D-galacto-2-nonulopyranosid)onate] showed a 50% inhibitory concentration (IC50) of 1.1 µM. In [3], this compound came in with a CC50 greater than 200 µM.
In the case of Dextran sulfate [reference compound], the “Minimum concentration exhibiting anticoagulant action” value in [4] came out at 0.5 µM.

The values above are taken from US6835720B2, “Compounds having antiviral activity” (Nissin Food Products Co., Ltd., priority 1996, dated 2004).
